Source: patent publication US20070099931A1, “Pharmaceutical dosage forms and compositions” (Wyeth, priority 2004, published 2007)
Converted amounts (≈) assume the structure as drawn.

How the values were obtained:
[1] = Solubility in water; type: physicochemical; conditions: 25° C.
[2] = molecular target: T1, 5-HT1A receptor (Homo sapiens, UniProt P08908); conditions: in vitro; cited from earlier work
T1 sequence (P08908 1-422): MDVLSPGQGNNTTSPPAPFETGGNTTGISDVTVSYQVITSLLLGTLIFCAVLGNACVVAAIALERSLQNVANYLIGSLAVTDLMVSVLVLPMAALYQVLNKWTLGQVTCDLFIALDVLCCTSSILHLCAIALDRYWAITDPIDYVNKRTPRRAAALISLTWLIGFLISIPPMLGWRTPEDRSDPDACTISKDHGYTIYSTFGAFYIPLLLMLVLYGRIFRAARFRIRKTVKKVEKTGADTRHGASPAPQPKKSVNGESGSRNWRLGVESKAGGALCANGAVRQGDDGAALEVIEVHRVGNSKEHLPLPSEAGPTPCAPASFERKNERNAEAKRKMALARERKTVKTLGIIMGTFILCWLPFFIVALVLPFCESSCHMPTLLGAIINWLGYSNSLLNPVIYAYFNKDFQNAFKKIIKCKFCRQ

[3] = test system: hippocampal extracellular 5-HT; conditions: cited from earlier work
[4] = test system: glutamate and acetylcholine release; conditions: dentate gyrus of the hippocampus; cited from earlier work
[5] = test system: 5-HT1A receptor; conditions: chronic administration; cited from earlier work
[6] = test system: 5-HT1A agonist discriminative stimulus cue; conditions: 0.01-1 mg/kg im; cited from earlier work
[7] = aged rhesus monkeys, optimal dose 1 mg/kg po; cited from earlier work
[8] = marmosets, 2 mg/kg im; cited from earlier work

## C[C@H](CN(C(=O)c1ccc(C#N)cc1)c1ccccn1)N1CCN(c2cccc3c2OCCO3)CC1 [lecozotan, 4-cyano-N-{(2R)-2-[4-(2,3-dihydro-benzo[1,4]dioxin-5-yl)-piperazin-1-yl]-propyl}-N-pyridin-2-yl-benzamide]
[1]
  solubility: ~51 mg/mL (≈ 105 mM)
[2]
  5-HT1A receptor binding and intrinsic activity: potent and selective 5-HT1A receptor antagonist
[3]; doses 10-fold higher than 0.3 mg/kg sc
  effect alone on hippocampal extracellular 5-HT: had no effects alone
[3]; lecozotan 0.3 mg/kg sc
  effect on decrease in hippocampal extracellular 5-HT induced by 8 OH-DPAT (0.3 mg/kg sc): antagonized the decrease in hippocampal extracellular 5-HT
[4]
  potassium chloride-stimulated release of glutamate and acetylcholine: significantly potentiated
[5]
  5-HT1A receptor tolerance or desensitization: did not induce 5-HT1A receptor tolerance or desensitization
[6]
  blockade of the 5-HT1A agonist discriminative stimulus cue: dose-related blockade
  substitution for 8-OH-DPAT: did not substitute for 8-OH-DPAT
[7]
  task performance efficiency: significant improvement in task performance efficiency
[8]
  learning deficits induced by specific cholinergic lesions of the hippocampus: reversed
  learning deficits induced by the glutamatergic antagonist MK-801: reversed
